Experiments:
[1] = system: bitter impression of a caffeine solution; test: Bitter reduction of a caffeine solution, rated by a group of experts (0 not bitter to 10 extremely bitter); assay type: in vivo; conditions: for Bitter impression (1-10) with: 500 ppm caffeine plus 100 ppm substance, 95% confidence intervals given as error; for % reduction in the bitter impression: 500 ppm caffeine, 100 ppm substance, calculated from average ratings without/with substance
Protocol: In order to quantify the reduction in the bitter impression, the bitterness of a caffeine solution comprising 500 ppm and of a sample comprising 500 ppm of caffeine and a variable amount of the compound of the example was determined by a group of experts (rating 0 [not bitter] to 10 [extremely bitter]). The evaluation was carried out by calculating the reduction (in %) in the bitter impression from the average values of the assessments of the caffeine solution or the solutions containing caffeine and compound of the example. 2,4-Dihydroxybenzoic acid (2,4-DHB) was used as comparison in accordance with U.S. Pat. No. 5,643,941.

taste = conditions: studied within the context of various sweeteners; cited from earlier work
taste of caffeine = conditions: in vivo; cited from earlier work
[2] = system: sweet impression of a sucrose solution; test: Enhancement of the sweet impression of a sucrose solution, rated by a group of experts (0 not sweet to 10 extremely sweet); assay type: in vivo
Protocol: In order to quantify the enhancement of the sweet impression, the sweetness of a sucrose solution comprising 5% and of a sample comprising 5% sucrose and an amount of compound 2 was determined by a group of experts (rating 0 [not sweet] to 10 [extremely sweet]). The evaluation was carried out by calculating the […] (in %) in the sweet impression from the average values of the assessments of the sucrose solution or of the solution comprising sucrose and compound 2.

[3] = system: sweetness impression of sugared low-fat yoghurt; test: Sweetness enhancement in low-fat yoghurt with 5% sugar, coded tasting by 16 testers (scale 0 to 10); assay type: in vivo
Description: 5% sugar was stirred into a commercially available natural yoghurt (without additives) having a fat content of 0.1% (sample 1). 200 ppm of compound 2 (Example 2), which had previously been dissolved in a minimal amount of ethanol, were additionally incorporated into a sample 2. Samples 1 and 2 were presented in coded form, in a different but predetermined order, to 16 testers for tasting. The testers had to note the sweetness impression on a scale of from 0 (not present) to 10 (extreme sweetness). In addition, the testers were to note other taste impressions.

Structure (SMILES): COc1cc(CC(=O)c2c(O)cc(O)cc2O)ccc1O [Compound 1, 2-(4-Hydroxy-3-methoxyphenyl)-1-(2,4,6-trihydroxyphenyl)-ethanone]
- Bitter impression (1-10) with [1]: 3.8 ± 0.9
- % reduction in the bitter impression [1]: 23%

Structure (SMILES): COc1ccc(CC(=O)c2c(O)cc(O)cc2O)cc1O [2-(3-hydroxy-4-methoxyphenyl)-1-(2,4,6-trihydroxyphenyl)ethanone]
- taste of the compound itself (taste): tasteless

Structure (SMILES): O=C([O-])c1ccc(O)cc1O.[K+] [2,4-Dihydroxybenzoic acid potassium salt]
- ability to suppress the taste of caffeine (taste of caffeine): not able to suppress the taste of caffeine

Structure (SMILES): O=C(O)c1ccc(O)cc1O [2,4-DHB, 2,4-Dihydroxybenzoic acid, reference compound]
- Bitter impression (1-10) with [1]: 5.0 ± 1.0
- % reduction in the bitter impression [1]: 3%

Structure (SMILES): COc1cc(CC(=O)c2ccc(O)cc2O)ccc1O [Compound 2, 1-(2,4-Dihydroxyphenyl)-2-(4-hydroxy-3-methoxyphenyl)-ethanone]
- Bitter impression (1-10) with [1]: 4.3 ± 0.8
- % reduction in the bitter impression [1]: 10%
- Sweet impresssion (1-10) with ([2]; 5% sucrose plus 100 ppm substance, standard deviations given as error): 5.9 ± 1.5
- % enhancement of the sweet impression ([2]; 5% sucrose, 100 ppm substance, calculated from average ratings): 18%
- number of testers who found the sample with compound sweeter ([3]; of 16 testers, 4 found sample 1 sweeter, 2 found both equally sweet): 10
- further taste impression noted ([3]; sample 2 (200 ppm compound)): sticky
- preference of testers ([3]; sample 2 (200 ppm compound) versus sample 1): preferred to sample 1 by the majority of testers
- enhancement of the sweetness impression ([3]; sample 2 (200 ppm compound) versus sample 1 in yoghurt with 5% sugar): 18%
- average sweetness impression rating (0 to 10) ([3]; sample 2: yoghurt 0.1% fat, 5% sugar, 200 ppm compound, sample 1 without compound rated 4.1): 4.9

From patent US20080113073A1, “Hydroxydeoxybenzoins And The Use Thereof to Mask A Bitter Taste” (SYMRISE GMBH & CO. KG, priority 2005, published 2008)
